In patent US5932417A, “Method of screening compounds for controlling capacitative calcium ion entry into mammalian cells” (priority 1996, dated 1999):
Entries after “also recorded” stand apart in the source; their conditions may differ.

Tests used:
M5 muscarinic receptor [1] = assay: Carbachol-induced capacitative Ca2+ influx in Ltk- cell lines expressing the M5 receptor (Fura2); format: cell-based; details: control Ltk- cell lines with M5 receptor only; average±SD, 20 cells each of 5 clones
Experimental: Mouse fibroblast Ltk^- cells (3×10^6 cells/100 mm dish) were transfected by the calcium phosphate/glycerol shock method with 5 μg each of the plasmids with the antisense cDNAs and 0.5 μg of the pcDNA3 carrying the M5 receptor. The control cells received only the M5 muscarinic receptor cDNA in pcDNA3. One day after transfection, the cells were trypsinized and diluted with Minimum Essential Medium--α medium containing 10% heat-inactivated fetal bovine serum, 50 units/ml penicillin, 50 μg/ml streptomycin, and 400 μg/ml G418 (GIBCO). Serial 1:4 dilutions of the cells were transferred into 96-well plates and G418 resistant clones were allowed to develop for two weeks in the G41 8-containing medium. Single colonies were then expanded and the cells used for Fura2 fluorescence measurement of muscarinic receptor induced [Ca^2+ ]i transients. […]
Intracellular Ca^2+ transients were measured in individual cells by fluorescence videomicroscopy using the Attofluor Digital Imaging and Photometry attachment of a Carl Zeiss Axiovert inverted microscope. […] [Ca^2+ ]i in individual cells was monitored at room temperature exciting Fura2 alternatingly at 334 and 380 nm and recording emitted fluorescence at 520 nm. […]

Htrp3 [2] = molecular target: T1, Htrp3 (Homo sapiens, UniProt Q13507); format: cell-based; parameters: The full length cDNAs encoding the M5 muscarinic receptor (32), Htrp1 (29), Htrp3 and murine luteinizing hormone receptor; expressed in transfected cells; host or cells: COS-M6
T1 sequence (Q13507 1-848 isoform Q13507-3): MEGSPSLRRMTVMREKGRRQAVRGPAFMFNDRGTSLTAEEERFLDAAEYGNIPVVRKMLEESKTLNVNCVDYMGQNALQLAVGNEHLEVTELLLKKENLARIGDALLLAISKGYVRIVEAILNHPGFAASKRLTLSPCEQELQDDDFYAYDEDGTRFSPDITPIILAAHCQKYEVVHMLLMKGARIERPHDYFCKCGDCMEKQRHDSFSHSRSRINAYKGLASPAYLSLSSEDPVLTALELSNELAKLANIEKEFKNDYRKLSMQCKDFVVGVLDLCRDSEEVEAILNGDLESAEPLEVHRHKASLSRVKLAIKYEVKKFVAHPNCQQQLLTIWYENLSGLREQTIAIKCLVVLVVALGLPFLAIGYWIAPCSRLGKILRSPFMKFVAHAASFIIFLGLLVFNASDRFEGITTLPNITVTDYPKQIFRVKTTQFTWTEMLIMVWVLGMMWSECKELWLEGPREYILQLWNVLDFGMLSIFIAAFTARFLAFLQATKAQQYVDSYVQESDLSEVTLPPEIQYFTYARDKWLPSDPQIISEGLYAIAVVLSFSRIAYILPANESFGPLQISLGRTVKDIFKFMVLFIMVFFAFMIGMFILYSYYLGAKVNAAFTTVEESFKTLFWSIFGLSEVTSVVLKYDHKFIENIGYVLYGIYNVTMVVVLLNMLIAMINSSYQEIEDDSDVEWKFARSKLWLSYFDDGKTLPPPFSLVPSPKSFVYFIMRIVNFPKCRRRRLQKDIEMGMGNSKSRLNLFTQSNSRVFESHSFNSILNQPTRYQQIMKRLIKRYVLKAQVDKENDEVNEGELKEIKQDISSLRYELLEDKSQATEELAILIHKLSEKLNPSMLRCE
Experimental: Intracellular Ca^2+ transients were measured in individual cells by fluorescence videomicroscopy using the Attofluor Digital Imaging and Photometry attachment of a Carl Zeiss Axiovert inverted microscope. Cells (COS-M6 or L) were grown on circular coverslips, rinsed and incubated with 5 μM Fura2/AM (Molecular Probes) in Hepes buffered saline (HPSS: 120 mM NaCl, 5.3 mM KCl, 0.8 mM MgSO4, 1.8 mM CaCl2, 11.1 mM glucose, 20 mM Hepes-Na, pH 7.4) at 37° C. for 30 min and then washed with HPSS twice at room temperature. The coverslips with the cells were then clamped into a circular open-bottom chamber and mounted onto the stage of the microscope. [Ca^2+ ]i in individual cells was monitored at room temperature exciting Fura2 alternatingly at 334 and 380 nm and recording emitted fluorescence at 520 nm. All reagents were diluted to their final concentrations in HPSS and applied to the cells by surface perfusion. […] The system allows data acquisition from up to 99 user-defined variably-sized regions of interest per field of view. Data from 15 to 30 individual cells were thus collected per experiment and experiments were repeated until data from sufficient cells were collected to generate an ensemble average that was calculated after transfer into Microsoft Excel 5.0. […]
For assessment of the rate at which [Ca^2+ ]i falls after an initial stimulation with agonist, t=0 is the time of agonist addition; for assessment of rate of influx of Ca^2+ into cells in which Ca^2+ stores had been depleted by agonist, t=0 is the time of Ca^2+ readdition. t1/2 /values were obtained by fitting the function A=A°exp(-t·ln2/t1/2)+B to the data points shown.
Cells that had been transfected with expression vectors carrying the M5 receptor and, as appropriate, either the newly cloned Htrp3 cDNA or the previously cloned Htrp1 cDNA (29), were grown on coverslips, loaded with the florescent Ca^2+ indicator dye Fura2 and tested for a response to CCh 40-48 hours after transfection. […] Changes in [Ca^2+ ]i as a function of time were recorded from individual cells, averaged and fitted by a first order decay function plus an offset.

[3] = test system: CCE endogenous to COS cells; format: cell-based
Experimental: Intracellular Ca^2+ transients were measured in individual cells by fluorescence videomicroscopy using the Attofluor Digital Imaging and Photometry attachment of a Carl Zeiss Axiovert inverted microscope. Cells (COS-M6 or L) were grown on circular coverslips, rinsed and incubated with 5 μM Fura2/AM (Molecular Probes) in Hepes buffered saline (HPSS: 120 mM NaCl, 5.3 mM KCl, 0.8 mM MgSO4, 1.8 mM CaCl2, 11.1 mM glucose, 20 mM Hepes-Na, pH 7.4) at 37° C. for 30 min and then washed with HPSS twice at room temperature. The coverslips with the cells were then clamped into a circular open-bottom chamber and mounted onto the stage of the microscope. [Ca^2+ ]i in individual cells was monitored at room temperature exciting Fura2 alternatingly at 334 and 380 nm and recording emitted fluorescence at 520 nm. […] Data from 15 to 30 individual cells were thus collected per experiment and experiments were repeated until data from sufficient cells were collected to generate an ensemble average that was calculated after transfer into Microsoft Excel 5.0. […]
For assessment of the rate at which [Ca^2+ ]i falls after an initial stimulation with agonist, t=0 is the time of agonist addition; for assessment of rate of influx of Ca^2+ into cells in which Ca^2+ stores had been depleted by agonist, t=0 is the time of Ca^2+ readdition. t1/2 /values were obtained by fitting the function A=A°exp(-t·ln2/t1/2)+B to the data points shown. […]

M5 muscarinic receptor [4] = assay: Carbachol-induced [Ca2+]i plateau in COS-M6 cells transfected with M5 receptor; format: cell-based; details: extracellular Ca2+ present
Experimental: COS-M6 cells were transfected by the DEAE-dextran/chloroquine shock method (14) as described (30) with changes. Sixteen hours prior to transfection, COS-M6 cells that had been kept subconfluent were plated at a density of 2×10^5 cells/well onto 25 mm glass coverslips placed at the bottom of the wells of 6-well plates. Cells in the individual wells were then transfected with 160 μl of transfection mixture (30) containing 0.1 μg pcDNA3 with the M5 receptor cDNA, a three fold molar excess of pcDNA3 vector carrying either the Htrp3, Htrp1 or mLHR cDNA to bring the final concentration of DNA to 4 μg/ml. Cell were used 40 to 48 hours after transfection.
Intracellular Ca^2+ transients were measured in individual cells by fluorescence videomicroscopy using the Attofluor Digital Imaging and Photometry attachment of a Carl Zeiss Axiovert inverted microscope. […] [Ca^2+ ]i in individual cells was monitored at room temperature exciting Fura2 alternatingly at 334 and 380 nm and recording emitted fluorescence at 520 nm. […] Data from 15 to 30 individual cells were thus collected per experiment and experiments were repeated until data from sufficient cells were collected to generate an ensemble average that was calculated after transfer into Microsoft Excel 5.0. […]

Htrp3 [5] = molecular target: T1, Htrp3; assay: Maitotoxin-stimulated Ca2+ influx into HEK 293 cells expressing Htrp3 versus control cells; format: cell-based; parameters: expressed in transfected cells; details: HEK 293 cells (FIG. 3)
Source text: (§1) Trp proteins can be expressed in cells by standard recombinant means such as described in Innamoratti et al. (57), Gudermann et al. (58), Zhu et al. (59) and Ca^2+ influx monitored in single cells as described in Zhu et al. (30) or in a population of cells as described in Liao et al. (32). By doing this in the absence and presence of test compounds of which the effect on trp-mediated CCE can then be determined. An example is shown below (FIGS. 1 and 2) where human embryonic kidney cells (HEK-293 cells) expressing Htrp3 in stable form (HEKt3-9) are stimulated with carbachol and CCE is measured upon readdition of Ca^2+ to the extracellular medium. […] Not only agents that block calcium entry due to trp expression but also agents that stimulate calcium entry due to trp can be monitored in this way.
(§2) In the above examples, cell were suspended in extracellular solution at a concentration of 20×10^6 cells/ml, loaded with Fura2AM (5 μM, 30 min), washed with solution nominally free of calcium, twice, and suspended at 2×10^6 cells/ml. Intracellular Ca^2+ concentrations were then monitored as described in Liao et al (32). Times and concentrations of additions are depicted by the bars in the Figures. Control cells were HEK 293 cells expressing an unrelated protein. For further details see references 32 and 30. […]

[6] = test system: endogenous TG-stimulated Ca2+ entry of COS cells; assay: Thapsigargin (store depletion)-stimulated Ca2+ entry in control COS cells; format: cell-based; details: 250 μM La3+, 500 nM TG, 1.8 mM Ca2+ added
Experimental: (§3) Intracellular Ca^2+ transients were measured in individual cells by fluorescence videomicroscopy using the Attofluor Digital Imaging and Photometry attachment of a Carl Zeiss Axiovert inverted microscope. Cells (COS-M6 or L) were grown on circular coverslips, rinsed and incubated with 5 μM Fura2/AM (Molecular Probes) in Hepes buffered saline (HPSS: 120 mM NaCl, 5.3 mM KCl, 0.8 mM MgSO4, 1.8 mM CaCl2, 11.1 mM glucose, 20 mM Hepes-Na, pH 7.4) at 37° C. for 30 min and then washed with HPSS twice at room temperature. The coverslips with the cells were then clamped into a circular open-bottom chamber and mounted onto the stage of the microscope. [Ca^2+ ]i in individual cells was monitored at room temperature exciting Fura2 alternatingly at 334 and 380 nm and recording emitted fluorescence at 520 nm. All reagents were diluted to their final concentrations in HPSS and applied to the cells by surface perfusion. The duration of exposure to each reagent mixture is indicated by the horizontal lines above the graphs depicting the changes in [Ca^2+ ]i as a function of time. […] Data from 15 to 30 individual cells were thus collected per experiment and experiments were repeated until data from sufficient cells were collected to generate an ensemble average that was calculated after transfer into Microsoft Excel 5.0. […]

Htrp3 [7] = molecular target: T1, Htrp3; assay: Thapsigargin (store depletion)-stimulated Ca2+ entry in Htrp3-transfected COS cells; format: cell-based; parameters: The full length cDNAs encoding the M5 muscarinic receptor (32), Htrp1 (29), Htrp3 and murine luteinizing hormone receptor; expressed in transfected cells; host or cells: COS-M6; details: 250 μM La3+; 500 nM TG, 1.8 mM Ca2+ added
Experimental: as §3

[8] = test system: CCE endogenous to the HEK 293 cell; assay: Carbachol-stimulated endogenous CCE in control HEK 293 cells; format: cell-based, human; details: 25 μM SKF 96365
Source text: as §1, §2

Htrp3 [9] = molecular target: T1, Htrp3; assay: Carbachol-stimulated CCE upon Ca2+ readdition in HEK-293 cells stably expressing Htrp3 (HEKt3-9); format: cell-based; parameters: expressed in transfected cells; details: 25 μM SKF 96365, HEKt3-9 cells, Ca2+ readdition (FIG. 2)
Source text: as §1, §2

## C[N+](C)(C)CCOC(N)=O [CCh, carbachol]
M5 muscarinic receptor [1]
  Increase of [Ca2+]i through the capacitative influx path (at Ca2+ addition vs 30 sec later): 96 ± 5 nM

## [Ni+2] [Ni^2+, nickel]
Htrp3 [2]; 2 mM Ni2+, Htrp3-transfected COS cells
  Inhibition of CCh-stimulated influx due to Htrp3: 20%
Htrp3 [2]; 10 mM Ni2+, Htrp3-transfected COS cells
  Block of Ca2+ influx in Htrp3 cells: 85%
[3]; 2 mM Ni2+, COS cells
  Block of endogenous CCh-stimulated CCE: > 90%

## CN1[C@@H]2CC[C@H]1C[C@@H](OC(=O)C(CO)c1ccccc1)C2 (some centres unmarked) [atropine]
M5 muscarinic receptor [4]
  Effect on carbachol-maintained [Ca2+]i plateau: blocked

## maitotoxin
Htrp3 [5]
  Maitotoxin-stimulated Ca2+ influx, Htrp3-expressing cells versus control cells: several fold larger

## [La+3] [La^3+, lanthanum]
[6]
  Block of TG-stimulated Ca2+ entry: > 80%
Htrp3 [7]
  Effect on TG-stimulated Ca2+ entry into Htrp3 transfected cells: significant residual
Htrp3 [2]; 250 μM La3+, Htrp3-transfected COS cells
  Block of the difference due to Htrp3 influx: 30-40%
Htrp3 [2]; 1 mM La3+, COS-M6 cells, CCh-stimulated, Ca2+ readdition
  Inhibition of Htrp3-stimulated Ca2+ influx: fully inhibited
[3]; 250 μM La3+, COS cells, agonist-stimulated
  Block of endogenous Ca2+ influx: 80-90%
[3]; 1 mM La3+, CCh-stimulated, Ca2+ readdition
  Inhibition of CCE endogenous to COS cells: fully inhibited

## COc1ccc(CCCOC(Cn2ccnc2)c2ccc(OC)cc2)cc1 (centres unmarked) [SKF 96365]
[8]
  Sensitivity of CCE endogenous to the HEK 293 cell (control): much less sensitive
Htrp3 [9]
  Block of CCE due to Htrp3 (extra-CCE): blocks selectively; also recorded: blocked
